Among the data in patent US8614218B2, “Fused bicyclic pyrimidines” (Bayer Intellectual Property GmbH, priority 2007, dated 2013) are IC50 values, retold here.

Assay type in all cases: cell-based
The test system of one test is A549 cells. As to the kind of experiment: Cellular proliferation/cytotoxicity assay (Alamar Blue), A549. To be noted: Homo sapiens, 72 h, Alamar Blue (Resazurin), read-out: Anti-proliterative/Cytotoxic activity (A549 cells). The procedure:
(§1) Cellular Proliferation/Cytotoxicity Assay:
(§2) The anti-proliferative activity of the compounds as described herein, is evaluated using the OvCAR3, HCT116 and A549 cell lines and the Alamar Blue (Resazurin) cell viability assay (O'Brien et al. Eur J Biochem 267, 5421-5426, 2000). Resazurin is reduced to the fluorescent resorufin by cellular dehydrogenase activity, correlating with viable, proliferating cells. Test compounds are dissolved as 10 mM solutions in DMSO and subsequently diluted. Cells like HCT116 or A549 cells were seeded into 96 well flat bottom plates at a density of 10000 cells/well (OvCAR3 cells), 1000 cells/well (HCT116 cells) or 2000 cells/well (A549 cells) in a volume of 200 μl/well. 24 hours after seeding, 1 μl each of the compound dilutions are added into each well of the 96 well plates. Each compound dilution is tested as at least as duplicates. Wells containing untreated control cells were filled with 200 μl DMEM (Dulbecco's Modified Eagle Medium) containing 0.5 vol % v:v DMSO. The cells are then incubated with the substances for 72 h at 37° C. in a humidified atmosphere containing 5 vol % CO2. To determine the viability of the cells, 20 μl of a Resazurin solution (90 mg/l) are added. After 4 h incubation at 37° C., the fluorescence is measured by extinction at λ=544 nm and an emission of λ=590 nm (Wallac Victor2; Perkin Elmer, USA). For the calculation of the cell viability, the emission value from untreated cells is set as 100% viability and the fluorescence intensity of treated cells are set in relation to the values of untreated cells. Viabilities are expressed as % values. The corresponding IC50 values of the compounds for cytotoxic activity are determined from the concentration-effect curves by means of non-linear regression. The analysis of the data is performed using a biostatistical program (GraphPad Prism, USA).
(§3) Representative IC50 values for anti-proliferative/cytotoxic potency determined in the aforementioned assay follow from the following table, in which the numbers of the compound correspond to the numbers of the examples.

The test system of the next test is OvCAR3 cells. Briefly: Cellular proliferation/cytotoxicity assay (Alamar Blue), OvCAR3. To be noted: Homo sapiens, OVCAR-3, 72 h, Alamar Blue (Resazurin), read-out: Anti-proliferative/Cytotoxic activity (OvCAR3 cells). The procedure:
as §1, §2, §3
On the technique in general: Resazurin is reduced to fluorescent resorufin, in cell work by metabolically active cells.

A further test deals with phospho-Akt (Ser473). Briefly: Cellular PI3K/Akt pathway assay (phospho-Akt ELISA). To be noted: Homo sapiens, MCF7 cells, β-Heregulin stimulated, 48 h incubation. The text has this: Cellular PI3K/Akt Pathway Assay
In order to study the cellular activity of the compounds according to the present invention, an Enzyme Linked Immunosorbent Assay (ELISA)-based assay has been used specific phospho-AKT. The assay is based on a Sandwich ELISA kit (PathScan™ Phospho-Akt1 (Ser473); Cell Signaling, USA; #7160). The ELISA Kit detects endogenous levels of phosphorylated Akt protein. A phospho-Akt (Ser473) antibody (Cell Signaling, USA; #9271) has been coated onto the microwells. After incubation with cell lysates, the coated antibody captures the phosphorylated Akt protein. Following extensive washing, Akt1 monoclonal antibody (Cell Signaling, USA; #2967) is added to detect the captured phospho-Akt1 protein. HRP-linked anti-mouse antibody (HRP: horseradish peroxidase; Cell Signaling, USA; #7076) is then used to recognize the bound detection antibody. HRP substrate (=3,3′,5,5′-tetramethylbenzidine (TMB); Cell Signaling, USA; #7160) is added to develop colour. The magnitude of optical density for this developed color is proportional to the quantity of phosphorylated Akt protein.
MCF7 cells (ATCC HTB-22) are seeded into 96 well fate bottom plates at a density of 10000 cells/well. 24 hours after seeding, the cells are serum starved using low-serum medium (IMEM media including 0.1% charcoal treated FCS (FCS: fetal calf serum)). After 24 hours 1 μl each of the compound dilutions (test compounds were dissolved as 10 mM solutions in dimethylsulfoxide (DMSO) and subsequently diluted) are added into each well of the 96 well plates and incubated for 48 h at 37° C. in a humidified atmosphere containing 5% CO2. To stimulate Akt phosphorylation, β-Heregulin (20 ng/ml β-HRG) is added in parallel to the compounds. Wells containing unstimulated control cells (no β-Heregulin stimulation) are incubated with or without the diluted compound. Wells containing untreated control cells (no compound) are filled with medium containing 0.5% v:v DMSO and are or are not stimulated with β-Heregulin.
Cells are harvested and lysed with brief sonification in 1× cell lysis buffer (20 mM Tris (pH7.5), 150 mM NaCl, 1 mM ethylene diaminetetraacetate (EDTA), 1 mM ethylene glycolbis(2-aminoethyl)-N,N,N′,N′-tetraacetic acid (EGTA), 1 vol % Triton X-100, 2.5 mM sodium pyrophosphate, 1 mM β-glycerolphosphate, 1 mM Na3VO4, 1 μg/ml leupeptin). The lysate is centrifuged for 10 min. at 4° C. and the supernatant is transferred to a new tube. 100 μl of sample diluent (0.1 vol % Tween-20, 0.1 vol % sodium azide in phosphate buffered saline (PBS)) are added to a microcentrifuge tube and 100 μl of cell lysate are transferred into the tube and vortexed. 100 μl of each diluted cell lysate are added to the appropriate ELISA well, and incubated overnight at 4° C. The plates are washed 4 times with 1× wash buffer (1 vol % tween-20, 0.33 vol % thymol, in PBS). Next 100 μl of detection antibody (Akt1 (2H10) monoclonal detection antibody; Cell Signaling, USA; #2967) are added to each well and incubation continued for 1 h at 37° C. The washing procedure is repeated between each step. 100 μl of secondary antibody (anti-mouse IgG HRP-linked antibody; Cell Signaling, USA; #7076) are added to each well and incubated for 30 min. at 37° C. Than, 100 μl of TMB substrate (0.05% 3,3′,5,5′ tetramethylbenzidine, 0.1% hydrogen peroxide, complex polypeptides in a buffered solution; Cell Signaling, USA; #7160) are added to each well and incubated for 30 min. at 25° C. Finally 100 μl of STOP solution (0.05 vol % α and β unsaturated carbonyl compound) are added to each well and the plate are shaked gently. The absorbance is measured at λ=450 nm (Wallac Victor2; Perkin Elmer, USA) within 30 min. after adding the STOP solution. The analysis of the data is performed using a statistical program (Excel; Microsoft, USA). Preferred compounds show an inhibitory activity towards Akt phosphorylation below 10 μM.
On the technique in general: An ELISA detects its analyte on a solid surface through an enzyme-linked reagent.

For the molecule `C#Cc1cnc2nc(-c3ccc(CN4CCC(c5n[nH]c(-c6ccccn6)n5)CC4)cc3)c(-c3ccccc3)cn12` [Example 13, 3-ethynyl-6-phenyl-7-(4-{[4-(5-pyridin-2-yl-1,2,4-triazol-3-yl)piperidin-1-yl]methyl}phenyl)imidazo[1,2-a]pyrimidine], the IC50 in the test on A549 cells and in the test on OvCAR3 cells was less than 10 µM throughout.

With `Cc1cnc2nc(-c3ccc(CN4CCC(c5n[nH]c(-c6ccccn6)n5)CC4)cc3)c(-c3ccccc3)cn12` [Example 14, 3-methyl-6-phenyl-7-(4-{[4-(5-pyridin-2-yl-1,2,4-triazol-3-yl)piperidin-1-yl]methyl}phenyl)imidazo[1,2-a]pyrimidine], the IC50 with A549 cells and with OvCAR3 cells was less than 10 µM each time.

On to `C=Cc1cnc2nc(-c3ccc(CN4CCC(c5n[nH]c(-c6ccccn6)n5)CC4)cc3)c(-c3ccccc3)cn12` [Example 15, 6-phenyl-7-(4-{[4-(5-pyridin-2-yl-1,2,4-triazol-3-yl)piperidin-1-yl]methyl}phenyl)-3-vinylimidazo[1,2-a]pyrimidine], for which the IC50 with A549 cells is greater than 10 µM; in the test with OvCAR3 cells it was less than 10 µM.

On to `CCOC(=O)c1cn2cc(-c3ccccc3)c(-c3ccc(CN4CCC(c5n[nH]c(-c6ccccn6)n5)CC4)cc3)nc2n1` [Example 16, Ethyl 6-phenyl-7-(4-{[4-(5-pyridin-2-yl-1,2,4-triazol-3-yl)piperidin-1-yl]methyl}phenyl)imidazo[1,2-a]pyrimidine-2-carboxylate], for which the IC50 in the test on A549 cells is greater than 10 µM; in the test on OvCAR3 cells, less than 10 µM.

As for `CCc1cn2cc(-c3ccccc3)c(-c3ccc(CN4CCC(c5n[nH]c(-c6ccccn6)n5)CC4)cc3)nc2n1` [Example 17, 2-ethyl-6-phenyl-7-(4-{[4-(5-pyridin-2-yl-1,2,4-triazol-3-yl)piperidin-1-yl]methyl}phenyl)imidazo[1,2-a]pyrimidine], the IC50 in the test with A549 cells and in the test with OvCAR3 cells was less than 10 µM each time.

`c1ccc(-c2cn3ccnc3nc2-c2ccc(CN3CCC(c4n[nH]c(-c5ncccn5)n4)CC3)cc2)cc1` [Example 18, 6-phenyl-7-(4-{[4-(5-pyrimidin-2-yl-1,2,4-triazol-3-yl)piperidin-1-yl]methyl}phenyl)imidazo[1,2-a]pyrimidine]: the IC50 in the test on A549 cells is greater than 10 µM; with OvCAR3 cells it was less than 10 µM.

Consider `c1ccc(-c2cn3nccc3nc2-c2ccc(CN3CCC(c4n[nH]c(-c5ccccn5)n4)CC3)cc2)cc1` [Example 19, 6-phenyl-5-(4-{[4-(5-pyridin-2-yl-1,2,4-triazol-3-yl)piperidin-1-yl]methyl}phenyl)pyrazolo[1,5-a]pyrimidine], for which the figures for the IC50 with A549 cells and with OvCAR3 cells were greater than 10 µM and less than 10 µM, respectively.

Take `c1ccc(-c2cn3ccnc3nc2-c2ccc(CN3CCC(n4cnc(-c5ccccn5)c4)CC3)cc2)cc1` [Example 20, 6-phenyl-7-(4-{[4-(4-pyridin-2-yl-imidazol-1-yl)piperidin-1-yl]methyl}phenyl)imidazo[1,2-a]pyrimidine]: the IC50 in the test on A549 cells was greater than 10 µM; in the test with OvCAR3 cells, less than 10 µM.

For `c1ccc(-c2cn3ccnc3nc2-c2ccc(CN3CCC(c4n[nH]c(-c5cnccn5)n4)CC3)cc2)cc1` [Example 21, 6-phenyl-7-(4-{[4-(5-pyrazin-2-yl-1,2,4-triazol-3-yl)piperidin-1-yl]methyl}phenyl)imidazo[1,2-a]pyrimidine], the IC50 in the test on A549 cells is greater than 10 µM; in the test with OvCAR3 cells, less than 10 µM.

`CCc1cnc2nc(-c3ccc(CN4CCC(c5n[nH]c(-c6ccccn6)n5)CC4)cc3)c(-c3ccccc3)cn12` [Example 22, 3-ethyl-6-phenyl-7-(4-{[4-(5-pyridin-2-yl-1,2,4-triazol-3-yl)piperidin-1-yl]methyl}phenyl)imidazo[1,2-a]pyrimidine]: the IC50 in the test with A549 cells was greater than 10 µM; with OvCAR3 cells it was less than 10 µM.

Regarding `FC(F)(F)c1cn2cc(-c3ccccc3)c(-c3ccc(CN4CCC(c5n[nH]c(-c6ccccn6)n5)CC4)cc3)nc2n1` [Example 26, 6-phenyl-7-(4-{[4-(5-pyridin-2-yl-1H-1,2,4-triazol-3-yl)piperidin-1-yl]methyl}phenyl)-2-(trifluoromethyl)imidazo[1,2-a]pyrimidine], the IC50 in the test with phospho-Akt (Ser473) is less than 1 µM; in the test with A549 cells, less than 10 µM.

For the molecule `Cc1nc2nc(-c3ccc(CN4CCC(c5n[nH]c(-c6ccccn6)n5)CC4)cc3)c(-c3ccccc3)c(C)n2n1` [Example 39, 2,7-Dimethyl-6-phenyl-5-(4-{[4-(5-pyridin-2-yl-1H-1,2,4-triazol-3-yl)piperidin-1-yl]methyl}phenyl)[1,2,4]triazolo[1,5-a]pyrimidine], the figures for the IC50 with phospho-Akt (Ser473) and with A549 cells were less than 1 µM and less than 10 µM, respectively.

For `Cc1nc2nc(-c3ccc(CN4CCC(c5n[nH]c(-c6ncccn6)n5)CC4)cc3)c(-c3ccccc3)cn2n1` [Example 45, 2-Methyl-6-phenyl-5-(4-{[4-(5-pyrimidin-2-yl-1H-1,2,4-triazol-3-yl)piperidin-1-yl]methyl}phenyl)[1,2,4]triazolo[1,5-a]pyrimidine], the values for the IC50 in the test with phospho-Akt (Ser473) and in the test on A549 cells were less than 1 µM and greater than 10 µM, respectively.

`Cc1cc2nc(-c3ccc(CN4CCC(c5n[nH]c(-c6ccccn6)n5)CC4)cc3)c(-c3ccccc3)c(C)n2n1` [Example 49, 2,7-Dimethyl-6-phenyl-5-(4-{[4-(5-pyridin-2-yl-1H-1,2,4-triazol-3-yl)piperidin-1-yl]methyl}phenyl)pyrazolo[1,5-a]pyrimidine]: the IC50 with phospho-Akt (Ser473) is less than 1 µM; in the test with A549 cells it was less than 10 µM.

In the case of `c1ccc(-c2nc(C3CCN(Cc4ccc(-c5nc6ccnn6cc5-c5ccsc5)cc4)CC3)n[nH]2)nc1` [Example 50, 5-(4-{[4-(5-Pyridin-2-yl-1H-1,2,4-triazol-3-yl)piperidin-1-yl]methyl}phenyl)-6-(3-thienyl)pyrazolo[1,5-a]pyrimidine], the IC50 with phospho-Akt (Ser473) was less than 1 µM; in the test with A549 cells it was less than 10 µM.
